Laboratory results taken from US20220041623A1, “INDOLE MACROCYCLIC DERIVATIVE, PREPARATION METHOD THEREOF AND APPLICATION THEREOF IN MEDICINE” (JIANGSU HENGRUI MEDICINE CO., LTD., priority 2018, published 2022).

Molecular target: T1, MCL-1 protein (Homo sapiens, UniProt Q07820)
T1 construct: Bim peptide bought from R&D, 3526/1 NA
Assay: MCL-1 protein binding experiment (HTRF, MCL-1/Bim)
Conditions: for inhibition at up to 10 µM / Maximum inhibition rate (%): HTRF MCL-1/Bim binding, initial concentration 10 μM; for inhibition at up to 10 µM: read-out: Maximum inhibition rate (%); for Ki: HTRF, 0.1 nM His-MCL-1, 2.5 nM bio-Bim, room temperature
Protocol: The following method was used to determine the binding ability of the compound of the present invention to MCL-1 protein. The experimental method is briefly described as follows.
MCL-1 inhibitors can bind to MCL-1 protein to prevent the binding of MCL-1 to Bim protein. The experiment evaluates the binding ability of MCL-1 inhibitor to MCL-1 protein by detecting the binding of MCL-1 to Bim protein through HTRF method, and the activity of the compound was evaluated according to the Ki value.
The mixture was incubated at room temperature for 2 hours, followed by the detection of fluorescence signals at 620 nm and 665 nm by PHERAstar. The data was processed by GraphPad software.

T1 sequence (Q07820 171-327): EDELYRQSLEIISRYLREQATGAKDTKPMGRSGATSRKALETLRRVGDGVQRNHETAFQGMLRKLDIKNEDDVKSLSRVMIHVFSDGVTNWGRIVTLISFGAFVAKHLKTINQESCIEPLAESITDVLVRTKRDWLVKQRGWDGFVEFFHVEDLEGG

SMILES | inhibition at up to 10 µM [%] | Ki [nM] | Maximum inhibition rate (%) | Maximum inhibition rate (%) (10 µM)
Cc1c(C(=O)O)n2c3ccc(Cl)c(c13)-c1c(nn(C)c1C)CSCc1cc(n(C)n1)CSc1cc(cc3c1CCC3)OCCC2 (single isomer, unassigned) [Example 12-2, (Sa)-17-Chloro-5,13,14,22-tetramethyl-28-oxa-2,9-dithia-5,6,12,13,24-pentaazaheptacyclo[27.6.1.1^4,7.0^11,15.0^16,21.0^20,24.0^30,35]heptatriaconta-1(36),4(37),6,11,14,16,18,20,22,29,31(35)-undecaene-23-carboxylic acid] |  | 5.7 | 100 | 
Cc1c(C(=O)O)n2c3ccc(Cl)c(c13)-c1c(nn3c1CCCC3)CSCc1cc(n(C)n1)CSc1cc(c3ccccc3c1)OCCC2 [Example 10, 21-Chloro-5,26-dimethyl-32-oxa-2,9-dithia-5,6,12,13,28-pentaazaoctacyclo[31.7.1.1^4,7.0^11,19.0^13,18.0^20,25.0^24,28.0^34,39]dotetraconta-1(41),4(42),6,11,18,20,22,24,26,33,35,37,39-tridecaene-27-carboxylic acid] | 101 | 7.9 |  | 
Cc1c2c(nn1C)CSCc1cc(n(C)n1)CSc1cc(c3ccccc3c1)OCCCn1c(C(=O)O)cc3c-2c(Cl)ccc31 (single isomer, unassigned) [Example 1-2, (Sa)-17-Chloro-5,13-14-trimethyl-28-oxa-2,9-dithia-5,6,12,13,24-pentaazaheptacyclo[27.7.1.1^4,7.0^11,15.0^16,21.0^20,24.0^30,35]octatriaconta-1(37),4(38),6,11,14,16,18,20,22,29,31,33,35-tridecaene-23-carboxylic acid] |  | 56 | 100 | 
Cc1cc2cc(c1)SCc1cc(nn1C)CN(C)Cc1nn(C)c(C)c1-c1c(Cl)ccc3c1c(C)c(C(=O)O)n3CCCO2 [Example 5, 17-Chloro-5,9,13,14,22,31-hexamethyl-28-oxa-2-thia-5,6,9,12,13,24-hexaazahexacyclo[27.3.1.1^4,7.0^11,15.0^16,21.0^20.24]tetratriaconta-1(33),4(34),6,11,14,16,18,20,22,29,31-undecaene-23-carboxylic acid] | 99 | 4.8 |  | 
Cc1c(C(=O)O)n2c3ccc(Cl)c(c13)-c1c(nn(C)c1C)CSCc1cc(n(C)n1)CSc1cc3c(c(c1)OCCC2)CCC3 (single isomer, unassigned) [Example 13-2, (Sa)-17-Chloro-5,13,14,22-tetramethyl-28-oxa-2,9-dithia-5,6,12,13,24-pentaazaheptacyclo[27.6.1.1^4,7.0^11,15.0^16,21.0^20,24.0^30,34]heptatriaconta-1(36),4(37),6,11,14,16,18,20,22,29,34-undecaene-23-carboxylic acid] |  | 4.4 |  | 99
Cc1c(C(=O)O)n2c3ccc(Cl)c(c13)-c1c(nn(C)c1C)CN(C)Cc1cc(n(C)n1)CSc1cc(c3ccccc3c1)OCCC2 (single isomer, unassigned) [Example 3-2, (Sa)-17-Chloro-5,9,13,14,22-pentamethyl-28-oxa-2-thia-5,6,9,12,13,24-hexaazaheptacyclo[27.7.1.1^4,7.0^11,15.0^16,21.0^20,24.0^30,35]octatriaconta-1(37),4(38),6,11,14,16,18,20,22,29,31,33,35-tridecaene-23-carboxylic acid] |  | 14 |  | 99
Cc1c(C(=O)O)n2c3ccc(Cl)c(c13)-c1c(nn(C)c1C)CSCc1cc(n(C)n1)CSc1cc(c3ccccc3c1)OCCC2 (single isomer, unassigned) [Example 2-2, (Sa)-17-Chloro-5,13,14,22-tetramethyl-28-oxa-2,9-dithia-5,6,12,13,24-pentaazaheptacyclo[27.7.1.1^4,7.0^11,15.0^16,21.0^20,24.0^30,35]octatriaconta-1(37),4(38),6,11,14,16,18,20,22,29,31,33,35-tridecaene-23-carboxylic acid] |  | 65 |  | 95
Cc1c(C(=O)O)n2c3ccc(Cl)c(c13)-c1c(nn(C)c1C)CSCc1cc(n(C)n1)CSc1cc3c(c(c1)OCCC2)CCCC3 (single isomer, unassigned) [Example 7-2, (Sa)-17-Chloro-5,13,14,22-tetramethyl-28-oxa-2,9-dithia-5,6,12,13,24-pentaazaheptacyclo[27.7.1.1^4,7.0^11,15.0^16,21.0^20,24.0^30,35]octatriaconta-1(37),4(38),6,11,14,16,18,20,22,29,35-undecaene-23-carboxylic acid] |  | 15 |  | 100
Cc1c(C(=O)O)n2c3ccc(Cl)c(c13)-c1c(nn(C)c1C)CSCc1cc(n(C)n1)CCc1cc3c(c(c1)OCCC2)CCCC3 (single isomer, unassigned) [Example 8-2, (Sa)-17-Chloro-5,13,14,22-tetramethyl-28-oxa-9-thia-5,6,12,13,24-pentaazaheptacyclo[27.7.1.1^4,7.0^11,15.0^16,21.0^20,24.0^30,35]octatriaconta-1(37),4(38),6,11,14,16,18,20,22,29,35-undecaene-23-carboxylic acid] |  | 57 |  | 98

Stronger by Ki, values ahead:

inhibition at up to 10 µM [%] | Ki [nM] | Maximum inhibition rate (%) | Maximum inhibition rate (%) (10 µM) | SMILES
100 | 3 |  |  | Cc1c(C(=O)O)n2c3ccc(Cl)c(c13)-c1c(nn3c1CCCC3)CN(C)Cc1cc(n(C)n1)CSc1cc(c3ccccc3c1)OCCC2 [Example 11, 21-Chloro-5,9,26-trimethyl-32-oxa-2-thia-5,6,9,12,13,28-hexaazaoctacyclo[31.7.1.1^4,7.0^11,19.0^13,18.0^20,25.0^24,28.0^34,39]dotetraconta-1(41),4(42),6,11,18,20,22,24,26,33,35,37,39-tridecaene-27-carboxylic acid]
98 | 1.9 |  |  | Cc1cc2cc(c1)SCc1cc(nn1C)CSCc1nn(C)c(C)c1-c1c(Cl)ccc3c1c(C)c(C(=O)O)n3CCCO2 [Example 6, 17-Chloro-5,13,14,22,31-pentamethyl-28-oxa-2,9-dithia-5,6,12,13,24-pentaazahexacyclo[27.3.1.1^4,7.0^11,15.0^16,21.0^20,24]tetratriaconta-1(33),4(34),6,11,14,16,18,20,22,29,31-undecaene-23-carboxylic acid]
100 | 1.5 |  |  | Cc1c(C(=O)O)n2c3ccc(Cl)c(c13)-c1c(nn(C)c1C)CN(C)Cc1cc(n(C)n1)CSc1cc3c(c(c1)OCCC2)CCCC3 [Example 9, 17-Chloro-5,9,13,14,22-pentamethyl-28-oxa-2-thia-5,6,9,12,13,24-hexaazaheptacyclo[27.7.1.1^4,7.0^11,15.0^16,21.0^20,24.0^30,35]octatriaconta-1(37),4(38),6,11,14,16,18,20,22,29,35-undecaene-23-carboxylic acid]
99 | 0.71 |  |  | Cc1c(C(=O)O)n2c3ccc(Cl)c(c13)-c1c(nn(C)c1C)CSCc1cc(n(C)n1)CSc1cc3c(c(c1)OCCC2)CCCC3 [Example 7, 17-Chloro-5,13,14,22-tetramethyl-28-oxa-2,9-dithia-5,6,12,13,24-pentaazaheptacyclo[27.7.1.1^4,7.0^11,15.0^16,21.0^20,24.0^30,35]octatriaconta-1(37),4(38),6,11,14,16,18,20,22,29,35-undecaene-23-carboxylic acid]
100 | 0.55 |  |  | Cc1c(C(=O)O)n2c3ccc(Cl)c(c13)-c1c(nn(C)c1C)CSCc1cc(n(C)n1)CCc1cc3c(c(c1)OCCC2)CCCC3 [Example 8, 17-Chloro-5,13,14,22-tetramethyl-28-oxa-9-thia-5,6,12,13,24-pentaazaheptacyclo[27.7.1.1^4,7.0^11,15.0^16,21.0^20,24.0^30,35]octatriaconta-1(37),4(38),6,11,14,16,18,20,22,29,35-undecaene-23-carboxylic acid]
100 | 0.36 |  |  | Cc1c2c(nn1C)CSCc1cc(n(C)n1)CSc1cc(c3ccccc3c1)OCCCn1c(C(=O)O)cc3c-2c(Cl)ccc31 (single isomer, unassigned) [Example 1-1, (Ra)-17-Chloro-5,13-14-trimethyl-28-oxa-2,9-dithia-5,6,12,13,24-pentaazaheptacyclo[27.7.1.1^4,7.0^11,15.0^16,21.0^20,24.0^30,35]octatriaconta-1(37),4(38),6,11,14,16,18,20,22,29,31,33,35-tridecaene-23-carboxylic acid]
100 | 0.32 |  |  | CCc1c(C(=O)O)n2c3ccc(Cl)c(c13)-c1c(nn(C)c1C)CSCc1cc(n(C)n1)CSc1cc(c3ccccc3c1)OCCC2 (single isomer, unassigned) [Example 14-1, (Ra)-17-Chloro-22-ethyl-5,13-14-trimethyl-28-oxa-2,9-dithia-5,6,12,13,24-pentaazaheptacyclo[27.7.1.1^4,7.0^11,15.0^16,21.0^20,24.0^30,35]octatriaconta-1(37),4(38),6,11,14,16,18,20,22,29,31,33,35-tridecaene-23-carboxylic acid]
100 | 0.18 |  |  | Cc1c(C(=O)O)n2c3ccc(Cl)c(c13)-c1c(nn(C)c1C)CN(C)Cc1cc(n(C)n1)CSc1cc(c3ccccc3c1)OCCC2 (single isomer, unassigned) [Example 3-1, (Ra)-17-Chloro-5,9,13,14,22-pentamethyl-28-oxa-2-thia-5,6,9,12,13,24-hexaazaheptacyclo[27.7.1.1^4,7.0^11,15.0^16,21.0^20,24.0^30,35]octatriaconta-1(37),4(38),6,11,14,16,18,20,22,29,31,33,35-tridecaene-23-carboxylic acid]
